According to ChEMBL document CHEMBL3407332, “An efficient synthesis of new caffeine-based chalcones, pyrazolines and pyrazolo[3,4-b][1,4]diazepines as potential antimalarial, antitrypanosomal and antileishmanial agents” (Eur J Med Chem, 2015):
≈ marks a conversion by molar mass, not a printed value.

Assays:
Trypanosoma cruzi [1] = test: Antitrypanosomal activity against amastigote stage of Trypanosoma cruzi Tulahuen infected in human U937 cells assessed as parasite growth inhibition at 20 ug/mL after 72 hrs by beta-galactosidase reporter gene assay relative to control; type: functional; conditions: U-937, 72 h, read-out: GI
Plasmodium falciparum [2] = test: Antimalarial activity against asynchronic culture of Plasmodium falciparum NF54 assessed as parasite growth inhibition at 20 ug/mL after 48 hrs by ethidium bromide staining-based spectrofluorometric analysis relative to control; type: functional; conditions: NF54, 48 h, read-out: GI
[3] = Cytotoxicity against human U937 cells assessed as cell viability after 72 hrs by MTT assay; type: cell-based, U-937; conditions: read-out: LC50
Leishmania panamensis [4] = test: Antileishmanial activity against amastigote stage of Leishmania panamensis MHOM/CO/87/UA140-EpiR-GFP infected in human U937 cells assessed as parasite growth inhibition at 20 ug/mL after 72 hrs by flow cytometric analysis relative to control; type: functional; conditions: MHOM/CO/87/UA140, U-937, 72 h, read-out: GI
Leishmania panamensis [5] = test: Antileishmanial activity against amastigote stage of Leishmania panamensis MHOM/CO/87/UA140-EpiR-GFP infected in human U937 cells assessed as parasite growth inhibition after 72 hrs by flow cytometric analysis; type: functional, organism-based; conditions: MHOM/CO/87/UA140, U-937, 72 h
[6] = Hemolytic activity in human RBC after 48 hrs by spectrophotometric analysis; type: ADME, cell-based, Erythrocyte; conditions: human red blood cells (RBC), read-out: LC50
Trypanosoma cruzi [7] = test: Antitrypanosomal activity against amastigote stage of Trypanosoma cruzi Tulahuen infected in human U937 cells assessed as parasite growth inhibition at 1 ug/mL after 72 hrs by beta-galactosidase reporter gene assay relative to control; type: functional; conditions: U-937, 72 h, read-out: GI
Leishmania panamensis [8] = test: Antileishmanial activity against amastigote stage of Leishmania panamensis MHOM/CO/87/UA140-EpiR-GFP infected in human U937 cells assessed as parasite growth inhibition at 5 ug/mL after 72 hrs by flow cytometric analysis relative to control; type: functional; conditions: MHOM/CO/87/UA140, U-937, 72 h, read-out: GI
Plasmodium falciparum [9] = test: Antimalarial activity against asynchronic culture of Plasmodium falciparum NF54 assessed as parasite growth inhibition after 48 hrs by ethidium bromide staining-based spectrofluorometric analysis; type: functional, organism-based; conditions: NF54, 48 h
Trypanosoma cruzi [10] = test: Antitrypanosomal activity against amastigote stage of Trypanosoma cruzi Tulahuen infected in human U937 cells assessed as parasite growth inhibition after 72 hrs by beta-galactosidase reporter gene assay; type: functional, organism-based; conditions: U-937, 72 h

SMILES	inhibition of growth at 20 µg/mL (Trypanosoma cruzi [1]) [%]	inhibition of growth at 20 µg/mL (Plasmodium falciparum [2]) [%]	CC50 at 72 h [3] [µg/mL]	inhibition of growth at 20 µg/mL (Leishmania panamensis [4]) [%]	EC50 (Leishmania panamensis [5]) [µg/mL]	HC50 at 48 h [6] [µg/mL]	inhibition of growth at 1 µg/mL (Trypanosoma cruzi [7]) [%]	inhibition of growth at 5 µg/mL (Leishmania panamensis [8]) [%]	IC50 (Plasmodium falciparum [9]) [µg/mL]	EC50 (Trypanosoma cruzi [10]) [µg/mL]
COc1cc(/C=C/C(=O)c2ccccc2)ccc1Oc1nc2c(c(=O)n(C)c(=O)n2C)n1C	0	27.5	131 (≈ 293 µM)	40.4	–	–	–	–	–	–
COc1cc(/C=C/C(=O)c2ccc(Cl)cc2)ccc1Oc1nc2c(c(=O)n(C)c(=O)n2C)n1C	29.5	18.4	102 (≈ 212 µM)	88.3	12.9 (≈ 26.8 µM)	–	–	–	–	–
COc1cc(/C=C/C(=O)c2ccc(Br)cc2)ccc1Oc1nc2c(c(=O)n(C)c(=O)n2C)n1C	0	34.3	96.5 (≈ 184 µM)	50.8	–	–	–	–	–	–
COc1cc(/C=C/C(=O)c2ccc(C)cc2)ccc1Oc1nc2c(c(=O)n(C)c(=O)n2C)n1C	–	54.3	27.5 (≈ 59.7 µM)	–	2.6 (≈ 5.65 µM)	> 200	0	21.8	21.4 (≈ 46.5 µM)	–
COc1ccc(C(=O)/C=C/c2ccc(Oc3nc4c(c(=O)n(C)c(=O)n4C)n3C)c(OC)c2)cc1	27.5	0	> 200	82.6	14.2 (≈ 29.8 µM)	–	–	–	–	–
COc1cc(/C=C/C(=O)c2cc(OC)c(OC)c(OC)c2)ccc1Oc1nc2c(c(=O)n(C)c(=O)n2C)n1C	–	6.4	3.2 (≈ 5.96 µM)	–	2.6 (≈ 4.85 µM)	–	9.7	48.8	–	5.9 (≈ 11 µM)
COc1cc(C2CC(c3ccccc3)=NN2)ccc1Oc1nc2c(c(=O)n(C)c(=O)n2C)n1C (stereo unspecified)	–	85.2	19.8 (≈ 43 µM)	–	–	> 200	0	0	13.7 (≈ 29.8 µM)	–
COc1cc(C2CC(c3ccc(Cl)cc3)=NN2)ccc1Oc1nc2c(c(=O)n(C)c(=O)n2C)n1C (stereo unspecified)	36.4	23.9	34.6 (≈ 69.9 µM)	7.7	–	–	–	–	–	–
COc1cc(C2CC(c3ccc(Br)cc3)=NN2)ccc1Oc1nc2c(c(=O)n(C)c(=O)n2C)n1C (stereo unspecified)	0	56.8	> 200	60	19.5 (≈ 36.2 µM)	> 200	–	–	20.8 (≈ 38.6 µM)	–
COc1cc(C2CC(c3ccc(C)cc3)=NN2)ccc1Oc1nc2c(c(=O)n(C)c(=O)n2C)n1C (stereo unspecified)	61.9	46.1	53.2 (≈ 112 µM)	0	–	–	–	–	–	19.4 (≈ 40.9 µM)
COc1ccc(C2=NNC(c3ccc(Oc4nc5c(c(=O)n(C)c(=O)n5C)n4C)c(OC)c3)C2)cc1 (stereo unspecified)	25.9	13.1	> 200	0	–	–	–	–	–	–
COc1cc(C2CC(c3cc(OC)c(OC)c(OC)c3)=NN2)ccc1Oc1nc2c(c(=O)n(C)c(=O)n2C)n1C (stereo unspecified)	0	30.7	> 200	73	15.8 (≈ 28.7 µM)	–	–	–	–	–
COc1cc(C2CC(c3ccccc3)=NN2C(C)=O)ccc1Oc1nc2c(c(=O)n(C)c(=O)n2C)n1C (stereo unspecified)	–	62.5	14.8 (≈ 29.5 µM)	–	–	> 200	0	35.2	18.4 (≈ 36.6 µM)	–
COc1cc(C2CC(c3ccc(Cl)cc3)=NN2C(C)=O)ccc1Oc1nc2c(c(=O)n(C)c(=O)n2C)n1C (stereo unspecified)	9.8	22.1	> 200	39.1	–	–	–	–	–	–
COc1cc(C2CC(c3ccc(Br)cc3)=NN2C(C)=O)ccc1Oc1nc2c(c(=O)n(C)c(=O)n2C)n1C (stereo unspecified)	24.3	44.1	110 (≈ 189 µM)	82.8	14.3 (≈ 24.6 µM)	–	–	–	–	–
COc1cc(C2CC(c3ccc(C)cc3)=NN2C(C)=O)ccc1Oc1nc2c(c(=O)n(C)c(=O)n2C)n1C (stereo unspecified)	30.6	35.6	> 200	63.7	18.1 (≈ 35 µM)	–	–	–	–	–
COc1ccc(C2=NN(C(C)=O)C(c3ccc(Oc4nc5c(c(=O)n(C)c(=O)n5C)n4C)c(OC)c3)C2)cc1 (stereo unspecified)	0	11.6	> 200	76.2	14.6 (≈ 27.4 µM)	–	–	–	–	–

SMILES	inhibition of growth at 20 µg/mL (Trypanosoma cruzi [1]) [%]	inhibition of growth at 20 µg/mL (Plasmodium falciparum [2]) [%]	CC50 at 72 h [3] [µg/mL]	inhibition of growth at 20 µg/mL (Leishmania panamensis [4]) [%]	EC50 (Leishmania panamensis [5]) [µg/mL]	HC50 at 48 h [6] [µg/mL]	inhibition of growth at 1 µg/mL (Trypanosoma cruzi [7]) [%]	inhibition of growth at 5 µg/mL (Leishmania panamensis [8]) [%]	IC50 (Plasmodium falciparum [9]) [µg/mL]	EC50 (Trypanosoma cruzi [10]) [µg/mL]
COc1cc(C2CC(c3cc(OC)c(OC)c(OC)c3)=NN2C(C)=O)ccc1Oc1nc2c(c(=O)n(C)c(=O)n2C)n1C (stereo unspecified)	15.8	46.3	> 200	87.6	12.6 (≈ 21.3 µM)	–	–	–	–	–
COc1cc(C2CC(c3ccccc3)=NN2C=O)ccc1Oc1nc2c(c(=O)n(C)c(=O)n2C)n1C (stereo unspecified)	0	30.8	> 200	53.1	–	–	–	–	–	–
COc1cc(C2CC(c3ccc(Cl)cc3)=NN2C=O)ccc1Oc1nc2c(c(=O)n(C)c(=O)n2C)n1C (stereo unspecified)	21.1	23.9	> 200	0	–	–	–	–	–	–
COc1cc(C2CC(c3ccc(Br)cc3)=NN2C=O)ccc1Oc1nc2c(c(=O)n(C)c(=O)n2C)n1C (stereo unspecified)	36.9	46.9	> 200	70.4	16.1 (≈ 28.4 µM)	–	–	–	–	–
COc1cc(C2CC(c3ccc(C)cc3)=NN2C=O)ccc1Oc1nc2c(c(=O)n(C)c(=O)n2C)n1C (stereo unspecified)	0	37.1	> 200	0	–	–	–	–	–	–
COc1ccc(C2=NN(C=O)C(c3ccc(Oc4nc5c(c(=O)n(C)c(=O)n5C)n4C)c(OC)c3)C2)cc1 (stereo unspecified)	27	41.7	38.7 (≈ 74.6 µM)	48.1	–	–	–	–	–	–
COc1cc(C2CC(c3cc(OC)c(OC)c(OC)c3)=NN2C=O)ccc1Oc1nc2c(c(=O)n(C)c(=O)n2C)n1C (stereo unspecified)	9.9	29.5	> 200	30.1	–	–	–	–	–	–
COc1cc(C2CC(c3ccccc3)=Nc3c(C)nn(-c4ccccc4)c3N2)ccc1Oc1nc2c(c(=O)n(C)c(=O)n2C)n1C (stereo unspecified)	15.7	85.9	> 200	0	–	> 200	–	–	13.3 (≈ 21.6 µM)	–
COc1cc(C2CC(c3ccc(Cl)cc3)=Nc3c(C)nn(-c4ccccc4)c3N2)ccc1Oc1nc2c(c(=O)n(C)c(=O)n2C)n1C (stereo unspecified)	0	80.3	> 200	0	–	> 200	–	–	14.1 (≈ 21.7 µM)	–
COc1cc(C2CC(c3ccc(F)cc3)=Nc3c(C)nn(-c4ccccc4)c3N2)ccc1Oc1nc2c(c(=O)n(C)c(=O)n2C)n1C (stereo unspecified)	23.5	91.7	> 200	0	–	> 200	–	–	12.5 (≈ 19.7 µM)	–
COc1cc(C2CC(c3ccc(C)cc3)=Nc3c(C)nn(-c4ccccc4)c3N2)ccc1Oc1nc2c(c(=O)n(C)c(=O)n2C)n1C (stereo unspecified)	37.7	93.5	> 200	0	–	> 200	–	–	12.3 (≈ 19.5 µM)	–
COc1ccc(C2=Nc3c(C)nn(-c4ccccc4)c3NC(c3ccc(Oc4nc5c(c(=O)n(C)c(=O)n5C)n4C)c(OC)c3)C2)cc1 (stereo unspecified)	26.9	84.4	> 200	0	–	> 200	–	–	13.1 (≈ 20.3 µM)	–
COc1cc(C2CC(c3cc(OC)c(OC)c(OC)c3)=Nc3c(C)nn(-c4ccccc4)c3N2)ccc1Oc1nc2c(c(=O)n(C)c(=O)n2C)n1C (stereo unspecified)	56.6	94.2	> 200	0	–	> 200	–	–	11.3 (≈ 16 µM)	20.3 (≈ 28.7 µM)
C[C@@H]1[C@H](O)[C@@H](C)/C=C/C=C/C=C/C=C/C=C/C=C/C=C/[C@H](O[C@@H]2O[C@H](C)[C@@H](O)[C@H](N)[C@@H]2O)C[C@@H]2O[C@](O)(C[C@@H](O)C[C@@H](O)[C@H](O)CC[C@@H](O)C[C@@H](O)CC(=O)O[C@H]1C)C[C@H](O)[C@H]2C(=O)O [AMPHOTERICIN B]	–	–	36 (≈ 39 µM)	100	0.05 (≈ 0.0541 µM)	–	–	–	–	–
O=C(Cn1ccnc1[N+](=O)[O-])NCc1ccccc1 [BENZNIDAZOLE]	100	–	180 (≈ 692 µM)	–	–	–	–	–	–	10.7 (≈ 41.1 µM)
CCN(CC)CCCC(C)Nc1ccnc2cc(Cl)ccc12 (stereo unspecified) [CHLOROQUINE]	–	58.2	–	–	–	–	–	–	–	–
